The values below come from PMC3314689, “Characterization of Cholinesterases in Plasma of Three Portuguese Native Bird Species: Application to Biomonitoring” (PLoS ONE, 2012).

Read-outs that look alike come from different tables or passages of the source.

Test in all cases: Ellman microplate assay, Michaelis-Menten fit
Common to all, as to settings: apparent, diluted plasma, 0.1 M phosphate pH 7.2, mean of 3 individuals
Background: DTNB colorimetry detects thiols as they appear.

The subject of assay [1] is T1, plasma ChE / plasma BChE of C. ciconia.
T1 construct: native enzyme in diluted EDTA plasma, not purified
It is filed as biochemical. The source says:
Ellman microplate assay, Michaelis-Menten fit on plasma ChE / plasma BChE of C. ciconia

The subject of assay [2] is T2, plasma ChE / plasma BChE of M. bassanus.
T2 construct: native enzyme in diluted EDTA plasma, not purified
The class given is biochemical, Morus bassanus. The source says: Ellman microplate assay, Michaelis-Menten fit on plasma ChE / plasma BChE of M. bassanus

In assay [3] the test system is T3, plasma ChE / plasma BChE of A. cinerea.
T3 construct: native enzyme in diluted EDTA plasma, not purified
The class given is biochemical, Ardea cinerea. An excerpt:
Ellman microplate assay, Michaelis-Menten fit on plasma ChE / plasma BChE of A. cinerea

For `CCC(=O)SCC[N+](C)(C)C` [propionylthiocholine iodide], the Km in assay [1] (read-out: PrSCh / Km) came to 6.1 µM; in assay [2] (read-out: PrSCh / Km), 21.4 µM; in assay [3] (read-out: PrSCh / Km) it was 150 µM.
With `CCCC(=O)SCC[N+](C)(C)C` [S-butyrylthiocholine iodide], the results for the Km in assay [1] (read-out: BuSCh / Km), in assay [2] (read-out: BuSCh / Km) and in assay [3] (read-out: BuSCh / Km) were 4.8 µM, 19.4 µM and 167 µM, respectively.
Turning to `CC(=O)SCC[N+](C)(C)C` [acetylthiocholine iodide], the Km in assay [1] (read-out: AcSCh / Km) worked out at 10.7 µM; in assay [2] (read-out: AcSCh / Km), 15.3 µM; in assay [3] (read-out: AcSCh / Km), 247 µM.
